Our source for the IC50 values is patent publication US20240417408A1, “SMALL MOLECULE INHIBITORS OF KRAS G12C MUTANT” (MERCK SHARP & DOHME CORP., priority 2021, published 2024).

A word on the IC50: it is the midpoint of a concentration-inhibition curve.

Experiment [1] deals with T1, biotinylated KRAS protein containing G12C/C51S/C80L/C118S mutations (SEQ ID NO: 3) (Homo sapiens, UniProt P01116, C118S/C51S/C80L/G12C).
T1 construct: biotin acceptor peptide (Avi-type, […]
Kind of experiment: Test Example 4: SOS-catalyzed nucleotide exchange assay (TR-FRET). Conditions: 60-minute incubation with compound, then SOS and GTP, read-out: GNE IC50. In kind it is biochemical. How it is done:
Test Example 4: Procedure for SOS-Catalyzed Nucleotide Exchange Assay
The SOS-catalyzed nucleotide exchange assay utilizes a preformed complex of recombinant biotinylated KRAS protein containing G12C/C51S/C80L/C118S mutations (SEQ ID NO: 3) (referred to as Biotinylated KRAS G12C protein hereafter), Bodipy-GDP, and Terbium-streptavidin. Compounds are added to this complex and then after a 60-minute incubation time the mixture is treated with SOS and unlabeled GTP. Small molecule inhibitors stabilize the Bodipy-GDP complex whereas the untreated protein rapidly exchanges Bodipy-GDP for unlabeled GTP resulting in reduced TR-FRET signal.
Biotinylated KRAS G12C protein is diluted to 2 μM in an EDTA buffer (20 mM HEPES, 50 mM sodium chloride, 10 mM EDTA, and 0.01% Tween) and incubated at room temperature for one hour. This mixture is then further diluted to 90 nM in an assay buffer (20 mM HEPES, 150 mM sodium chloride, 10 mM magnesium chloride, and 0.005% Tween) containing 15 nM of Terbium-Streptavidin (Invitrogen, catalog #PV3577) and 900 nM of Bodipy-GDP (Invitrogen, G22360) and incubated at room temperature for six hours. This solution is referred to as Biotinylated KRAS G12C stock solution and is then diluted to 9 nM in assay buffer to give the KRAS G12C assay solution.
Each test compound (10 mM stock in DMSO) is diluted in DMSO to make a 10-point, 3-fold dilution series in a 384-well low dead volume microplate (Labcyte, catalog #LP-0200). Once titrations are made, 10 nL of the diluted compounds is acoustically dispensed into a 384-well plate (Corning, catalog #3820) using an Echo 550 (Labcyte).
Each well receives 6 μL of Biotinylated KRAS G12C assay solution using a BioRAPTR (Beckman Coulter) and is incubated at room temperature for 60 minutes in a humidified chamber. Each well then receives 3 μL of 120 nM recombinant human SOS protein and 9 mM GTP (Sigma, G8877) in assay buffer and is incubated at room temperature for 60 minutes in a humidified chamber.
The time-resolved fluorescence resonance energy transfer signal of both plates is measured on an Envision (PerkinElmer) plate reader: Excitation filter=340 nm; emission 1=495 nm; emission 2=520 nm; dichroic mirror=D400/D505; delay time=100 μs. The signal of each well is determined as the ratio of the emission at 520 nm to that at 495 nm. Percent effect of each well is determined after normalization to control wells containing DMSO (no effect) or a saturating concentration of inhibitor (max effect). The apparent effect as a function of compound concentration is fit to a four-parameter logistic equation.
(In general: TR-FRET usually uses a lanthanide donor and a delayed reading to cut background.)

Experiment [2] has as its target T2, Recombinant KRAS G12C mutant protein (amino acids 1-169, SEQ ID NO: 1) (Homo sapiens, UniProt P01116, G12C).
T2 construct: His6 (N); TEV protease site (ENLYFQG; named from own knowledge) (N); made in house; host or cells: E. coli
Kind of experiment: Test Example 1: inhibitory activity on KRAS G12C nucleotide (GDP-GTP) exchange reaction in vitro. In kind it is biochemical. Conditions: BODIPY FL GDP-bound KRAS G12C incubated with compound at 25° C. for 1 hour, then SOS1 and GMPPNP, read-out: GNE IC50. How it is done:
Test Example 1: Evaluation of inhibitory activity of compounds on KRAS G12C nucleotide (GDP-GTP) exchange reaction in vitro
Recombinant KRAS G12C mutant protein (amino acids 1-169, SEQ ID NO: 1) and cleaved recombinant SOS1 (amino acids 564-1049, SEQ ID NO:2) proteins were expressed in E. coli and purified by affinity chromatography.
To prepare BODIPY FL GDP-bound KRAS G12C protein, 50 μM KRAS G12C protein was incubated with 0.5 mM BODIPY FL GDP in a loading buffer (20 mM Tris-HCl (pH 7.5), 50 mM NaCl, 1 mM DTT and 2.5 mM EDTA) for 1 hour on ice. After the incubation, MgCl2 was added to a final concentration of 10 mM, followed by incubation at room temperature for 30 minutes. The mixture was allowed to pass through a NAP-5 column to remove free nucleotides and purified BODIPY FL GDP-bound KRAS G12C protein was used for compound evaluation.
For the measurement of the inhibitory activity of compounds on GDP-GTP exchange rate of recombinant KRAS G12C, BODIPY FL GDP-bound KRAS G12C protein was incubated with various concentrations of compound in a reaction buffer (20 mM Tris-HCl (pH 7.5), 100 mM NaCl, 1 mM MgCl2, 2 mM DTT, 0.1% Tween 20) at 25° C. for 1 hour. After the incubation, recombinant SOS1 and Guanosine-5′-[(β,γ)-imido]triphosphate, Tetralithium salt (GMPPNP) (Jena Bioscience GmbH) were added and incubated at room temperature for 30 minutes to proceed SOS1-dependent GDP-GTP exchange reaction on KRAS G12C. Replacement of BODIPY FL GDP by GMPPNP was measured by calculating the ratio of fluorescence intensities of BODIPY FL before and after the exchange reaction. Inhibition % was calculated by setting the fluorescence ratio from the reaction without test compound (DMSO control) and the fluorescence ratio from the reaction without SOS1 and GMPPNP as 0% and 100% inhibition, respectively. IC50 values were calculated from dose titration curve using curve fitting by XLfit software (IDBS).

Experiment [3] deals with T3, interaction between KRAS G12C and cRAF-RBD (Homo sapiens, UniProt P01116, G12C).
T3 construct: TEV protease site (ENLYFQG); made in house; host or cells: E. coli
The experiment can be described thus: Test Example 2: inhibitory activity on interaction between KRAS G12C and cRAF (Alpha technology). In kind it is binding. The conditions noted are these: GMPPNP-bound KRAS G12C incubated with compound at 25° C. for 1 hour, then cRAF-RBD. How it is done: Test Example 2: Evaluation of Inhibitory Activity of Compounds on Interaction Between KRAS G12C and cRAF (In Vitro)
Interaction between recombinant KRAS G12C mutant protein (SEQ ID NO: 1) and cRAF RAS-binding domain (cRAF-RBD, amino acids 50-132, Jena Biosciences GmbH) was measured using Alpha technology (PerkinElmer Inc.).
Recombinant KRAS G12C protein with an N-terminal His-tag was expressed in E. coli and purified by affinity chromatography. To prepare GTP-bound form and GDP-bound form of KRAS G12C protein, 50 μM KRAS G12C protein was incubated with 1 mM GMPPNP (Jena Bioscience GmbH) and 1 mM GDP, respectively, in a loading buffer (20 mM Tris-HCl (pH 7.5), 50 mM NaCl, 1 mM DTT and 2.5 mM EDTA) for 1 hour on ice. After the incubation, MgCl2 was added to a final concentration of 10 mM, followed by incubation at room temperature for 30 minutes. The mixture was allowed to pass through a NAP-5 column to remove free nucleotides and purified, and the resultant nucleotide-bound KRAS G12C protein was used for compound evaluation.
For the measurement of the inhibitory activity of compounds on interaction between KRAS G12C and cRAF-RBD, GMPPNP-bound KRAS G12C protein was incubated with various concentrations of compound in a reaction buffer (20 mM Tris-HCl (pH 7.5), 100 mM NaCl, 1 mM MgCl2, 1 mM TCEP, 0.1% Tween 20) at 25° C. for 1 hour. After the incubation, recombinant cRAF-RBD and Alpha detection reagents were added and incubated at room temperature for 1.5 hours for binding. Interaction of KRAS G12C and cRAF-RBD was monitored by measuring Alpha signal. Inhibition % was calculated using the signal from the reaction without test compound (DMSO control) as 0% inhibition and the signal from the reaction using GDP-bound KRAS G12C in place of GMPPNP-bound KRAS G12C as 100% inhibition. IC50 values were calculated from dose titration curve using curve fitting by XLfit software (IDBS).

A further experiment concerns MIA PaCa-2 cells. Kind of experiment: Test Example 3: growth inhibition activity on KRAS-G12C mutant cell line (MIA PaCa-2). Conditions: Homo sapiens, 72 h, MIA PaCa-2, 3-day culture, CellTiter-Glo 3D, read-out: CTX MiaPaCa IC50. In kind it is cell-based. How it is done: Test Example 3: Assay of Growth Inhibition Activity on KRAS-G12C Mutant Cell Line (MIA PaCa-2) (In Vitro)
MIA PaCa-2 cells (provided by Sumitomo Dainippon Pharma Co., Ltd.), which are a KRAS-G12C mutant human pancreas cancer cell line, were suspended in a 10% fetal bovine serum-containing RPMI1640 medium (manufactured by Fujifilm Wako Pure Chemical Corporation.). The cell suspension was seeded into each well of a 384-well U bottom microplate and cultured in an incubator containing 5% CO2 gas at 37° C. for 1 day. The compounds obtained in the Examples section were used as test compounds and were dissolved in DMSO, respectively, and each test compound was diluted with DMSO to give a concentration 500 times the final concentration. The resultant solution of the test compound in DMSO was diluted with the medium used for suspending cells and added to each well of the cell-culture plate to give a DMSO final concentration of 0.2%, followed by culture in an incubator containing 5% CO2 gas at 37° C. for another 3 days. The cell count after 3-day culture in the presence of the test compound was measured using CellTiter-Glo 3D Reagent (manufactured by Promega Corporation). To all cells were added with CellTiter-Glo 3D Reagent and mixed for 10 minutes. 30 minutes after mixing, luminescence was measured by a plate reader. The growth inhibition rate was calculated from the following equation, and the concentration of the test compound at which 50% inhibition was achieved (IC50 (nM)) was determined.
[formula] • T: the emission intensity in a well into which a test compound was added. • C: the emission intensity in a well into which a test compound was not added.
A general note: Cellular ATP, detected with luciferase, serves as a proxy for viable cell number.

T3 sequence (P01116 with tags, fused parts or gaps isoform P01116-2 G12C): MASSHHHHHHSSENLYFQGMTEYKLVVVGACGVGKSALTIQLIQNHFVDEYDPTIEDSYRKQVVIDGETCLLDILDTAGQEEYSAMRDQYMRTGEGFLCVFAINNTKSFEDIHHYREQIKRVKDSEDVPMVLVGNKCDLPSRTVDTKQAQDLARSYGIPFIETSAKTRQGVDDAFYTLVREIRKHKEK
T2 sequence (P01116 with tags, fused parts or gaps isoform P01116-2 G12C): as above
T1 sequence (P01116 with tags, fused parts or gaps isoform P01116-2 G12C/C51S/C80L/C118S): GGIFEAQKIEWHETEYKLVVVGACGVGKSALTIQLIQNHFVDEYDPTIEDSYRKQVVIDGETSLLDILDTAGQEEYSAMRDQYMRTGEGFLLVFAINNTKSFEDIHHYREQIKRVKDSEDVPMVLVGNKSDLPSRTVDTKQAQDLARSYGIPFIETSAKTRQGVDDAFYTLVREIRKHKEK

Regarding `C#Cc1cccc2cccc(C3Cc4nc(OCC56CCCN5CC(F)C6)nc(N5CCN(C(=O)C=CCN6CCC(OC)CC6)C(CC#N)C5)c4CO3)c12` (single isomer, unassigned) [Example 25a], in experiment [1], the IC50 is 0.142 µM.

In the case of `CO[C@H]1CC[C@H](NC/C=C/C(=O)N2CCN(c3nc(OC[C@@H]4CCCN4C)nc4c3CO[C@H](c3cc(O)cc5cccc(Br)c35)C4)C[C@@H]2CC#N)CC1` [Example 11, 2-((S)-4-((S)-7-(8-bromo-3-hydroxynaphthalen-1-yl)-2-(((S)-1-methylpyrrolidin-2-yl)methoxy)-7,8-dihydro-5H-pyrano[4,3-d]pyrimidin-4-yl)-1-((E)-4-(((1r,4S)-4-methoxycyclohexyl)amino)-but-2-enoyl)piperazin-2-yl)-acetonitrile], the IC50 in experiment [2] was found to be 0.00081 µM; in experiment [3], 0.182 µM; in the experiment with MIA PaCa-2 cells, 0.0217 µM.

For the compound `C#Cc1cccc2cc(O)cc(C3Cc4nc(OC[C@@H]5CCCN5C)nc(N5CCN(C(=O)/C=C/CN6CCC(OC)CC6)[C@@H](CO)C5)c4CO3)c12` (stereo partly drawn) [Example 19, (E)-1-((2R)-4-(7-(8-ethynyl-3-hydroxynaphthalen-1-yl)-2-(((S)-1-methylpyrrolidin-2-yl)methoxy)-7,8-dihydro-5H-pyrano[4,3-d]pyrimidin-4-yl)-2-(hydroxymethyl)-piperazin-1-yl)-4-(4-meth-oxypiperidin-1-yl)but-2-en-1-one], the IC50 in experiment [2] came out at 0.0467 µM; in experiment [3] it was 3.55 µM; in the experiment with MIA PaCa-2 cells, 8.25 µM.

Regarding `C#Cc1cccc2cc(O)cc([C@@H]3Cc4nc(OC[C@@H]5CCCN5C)nc(N5CCN(C(=O)/C=C/CN6CCC(OC)CC6)[C@@H](CC#N)C5)c4CO3)c12` [Example 7, 2-((S)-4-((S)-7-(8-ethynyl-3-hydroxynaphthalen-1-yl)-2-(((S)-1-methylpyrrolidin-2-yl)methoxy)-7,8-dihydro-5H-pyrano[4,3-d]pyrimidin-4-yl)-1-((E)-4-(4-methoxy-piperidin-1-yl)but-2-enoyl)-piperazin-2-yl)acetonitrile], the IC50 was determined as 0.00088 µM in experiment [2], 0.0506 µM in experiment [3] and 0.00436 µM in the experiment on MIA PaCa-2 cells.
